The values below come from paper PMC10056257 (Journal of medicinal chemistry, 2023).

Marks after values point to notes of the source that are not given here.

The subject of data set [1] is Pseudomonas aeruginosa PA01. Description: MIC, broth microdilution. The data set is classed as cell-based. To be noted: P. aeruginosa PA01.
The test system of another data set is S. aureus USA 300 JE2. Description: MIC, broth microdilution. The data set is classed as cell-based, Staphylococcus aureus. Background: Dilution methods test growth across graded concentrations, often in twofold steps.
A further data set has as its system Escherichia coli K12. Description: MIC, broth microdilution. The data set is classed as cell-based. To be noted: E. coli K12.
Data set [2] relates to Lactobacillus rhamnosus CGMCC 1.3724. Description: MIC against L. rhamnosus. The data set is classed as cell-based. Particulars: L. rhamnosus CGMCC 1.3724.
Data set [3] can be described thus: Simulated intestinal fluid stability. The data set is classed as in vitro ADME. Particulars: SIF pH 7.60 with pancreatin, 24 h.
The test system of data set [4] is Acinetobacter baumannii 2208. As to the kind of experiment: MIC, broth microdilution. The data set is classed as cell-based. To be noted: A. baumannii 2208.
Data set [5] relates to Lactobacillus plantarum DSM 20174. As to the kind of experiment: MIC against L. plantarum. The data set is classed as cell-based. To be noted: L. plantarum DSM 20174.
Data set [6] concerns Bacteroides thetaiotaomicron DSM 2079. Description: MIC against anaerobic bacteria. To be noted: B. thetaiotaomicron DSM 2079, anaerobic. Format: cell-based.
Data set [7] has as its system Anaerostipes caccae DSM 14662. As to the kind of experiment: MIC against anaerobic bacteria. The data set is classed as cell-based. Particulars: A. caccae DSM 14662, anaerobic.
Data set [8] relates to E. coli nonpathogenic ATCC MG1655. As to the kind of experiment: MIC determination. The data set is classed as cell-based, Escherichia coli.
Data set [9] relates to Methicillin-resistant S. aureus (MRSA) ClpX. Particulars: read-out: IC50, ClpX ATPase activity; cited from earlier work.
A further data set concerns S. typhimurium TA100. Particulars: positive control, TA100, S9−, 2.5 μg/plate.

As for `N#Cc1ccccc1C1Sc2ccccc2NC2=C1C(=O)c1ccccc12` (stereo not shown) [5a, 2-(12-Oxo-11,12-dihydro-5H-benzo[b]indeno[1,2-e][1,4]thiazepin-11-yl)benzonitrile], the MIC entry in data set [1] was “inactive”; with S. aureus USA 300 JE2, “inactive”; with Escherichia coli K12, “inactive”; in [2] it was “no antibacterial activity”; in data set [4] it was “inactive”; in [5], “no antibacterial activity”. Also, the MIC result in data set [6], in data set [7] and in data set [8] was “completely inactive” throughout. For the same molecule, the “percentage of drug remaining” value in [3] is “around 85%”.

Regarding `CC[C@H]1OC(=O)[C@H](C)[C@@H](O[C@H]2C[C@@](C)(OC)[C@@H](O)[C@H](C)O2)[C@H](C)[C@@H](O[C@@H]2O[C@H](C)C[C@H](N(C)C)[C@H]2O)[C@](C)(O)C[C@@H](C)CN(C)[C@H](C)[C@@H](O)[C@]1(C)O` [AZM, azithromycin, reference compound], the MIC entry in [7] was “no susceptibility”.

What is called IC50 is the concentration that gives 50% inhibition. For `O=C1C2=C(Nc3ccccc3SC2c2cccc(O)c2)c2ccccc21` (stereo not shown) [compound 334, 11-(3-Hydroxyphenyl)-5,11-dihydro-12H-benzo[b]indeno[1,2-e][1,4]thiazepin-12-one], the concentration for half-maximal inhibition (IC50) in data set [9] is 800 nM.

For Sodium azide, the number of revertants/plate with S. typhimurium TA100 was 260.70 ± 15.30^e revertants/plate.
